The values that follow come from patent US10183032B2, “Methods for treating bacterial infection” (Ball State Innovation Corporation, priority 2012, dated 2019).

In experiment [1] the test system is actin stress fibers. The experiment is described as follows: Actin stress fibers in HUVEC during S. pyogenes infection. It counts as cell-based, human. The settings on record: ML 141 10 μM, 18-20 h, MOI 30, 2 h. The protocol:
FIG. 13 is an image depicting ML 141 decreasing actin stress fiber depolymerization during infection. HUVEC were incubated with vehicle control dimethyl sulfoxide (DMSO) or with ML 141 (10 μM) 18-20 h prior to infection with Streptococcus pyogenes at a multiplicity of infection of 30 (2 h). Actin was detected using Alexa Fluor 488 phalloidin. Data are presented as the percentage of HUVEC with no detectable actin stress fibers. 100-200 cells/treatment were evaluated from randomly selected fields. Scale bar is 50 μm (P<0.05 by χ^2 test of association).
For actin assessment, HUVEC were seeded at 6×10^5 cells/ml in 35 mm glass-bottom dishes (MatTek, Ashland, Mass.) that had been coated with Attachment Factor. HUVEC were pretreated with ML 141 or with DMSO and treated with gentamicin as described above. HUVEC were washed three times with PBS and fixed with 4% paraformaldehyde for 30 min, RT. HUVEC were gently washed four times with PBS, permeabilized and blocked with 1% BSA/0.1% Triton (Sigma-Aldrich, T8787). HUVEC were gently washed four times with PBS, probed for actin with Alexa Fluor 488 phalloidin (1:40, Life Technologies, A12379) in PBS (30 min, RT) and washed three more times with PBS. […] A total of 200 HUVEC were assessed for actin stress fiber disassembly from randomly selected fields-of-view. […]

The test system of experiment [2] is Staphylococcus aureus. The experiment is described as follows: S. aureus invasion of monocytic cell line U937, flow cytometry. The following applies: pretreatment 0.05 μM, 1 hour. Format: cell-based. As for the experimental part: FIG. 1 illustrates ML 141 limits host cell invasion. The monocytic cell line U937 was pretreated with the vehicle control dimethyl sulfoxide (DMSO) or with ML 141 (0.05 μM, 1 h) followed by infection with Alexa Fluor 488-labeled S. aureus (1 hour). The % of 488^+ cells decreased with ML 141 treatment.
Specific pharmacologic inhibition of CDC42 has been examined to determine whether it is sufficient in the inhibition of host cell invasion by S. aureus. Host cell cytotoxicity was undetectable below 30 μM in vitro. The highest concentration of ML 141 introduced in vivo without detectable toxicity was 100 mg/kg body weight [BW]. The compound was dissolved in polyethylene glycol and administered as a single intraperitoneal injection to C57BL/6 mice.

Experiment [3] relates to Staphylococcus aureus. The experiment is described as follows: S. aureus invasion of serum-starved RAW 264.7 cells, CFU recovery. The settings on record: treatment 1 hour, serum-starved conditions, 10 μM. It counts as cell-based. As for the experimental part:
FIG. 5 is a graph illustrating ML 141 inhibiting invasion with shorter duration exposure under serum starved conditions. RAW 264.7 cells were serum-starved overnight then pretreated for 1 hour with the vehicle control dimethyl sulfoxide (DMSO) or with ML 141 (10 μM). Following infection with Staphylococcus aureus (1 hour), extracellular bacteria were eliminated using the antimicrobials gentamicin and lysostaphin (45 minutes), and intracellular bacteria recovered by permeabilizing the host cells. Serial dilutions of the recovered intracellular bacteria were incubated on tryptic soy agar, colonies enumerated, and colony forming units (CFU)/ml calculated (*less than vehicle control; p≤0.05 by Student's t-test; n=3/treatment). […]
Two days prior to the assay, TSB is inoculated with S. aureus (American Type Culture Collection #29213) and incubated overnight (225 rpm, 37° C.). […] To detect the level of infection using flow cytometry, cells that have been infected with fluorescently-labeled bacteria are washed extensively with PBS, lifted from 96-well plate by incubation with trypsin, washed extensively in FACS buffer (2% BSA/0.1% sodium azide/PBS), fixed (FACS buffer containing 0.74% formaldehyde), and are counted using an Accuri flow cytometer (BD, Franklin Lakes, N.J.). […]

For the molecule `COc1ccc(C2CC(c3ccccc3)=NN2c2ccc(S(N)(=O)=O)cc2)cc1` (stereo not drawn) [ML 141, 4-[3-(4-methoxyphenyl)-5-phenyl-3,4-dihydropyrazol-2-yl]benzenesulfonamide], the “reordering of actin stress fibers during S. pyogenes infection” value in experiment [1] is reported as “less reordering of actin stress fibers”. In addition, the “invasion by S. aureus (% of 488+ cells)” value in experiment [2] is “decreased invasion”. Also, the “inhibition of invasion, shorter exposure” value in experiment [3] is on record as “Inhibition is detectable”.
